Results published in US20160367497A1, “METHODS AND COMPOSITIONS FOR TREATING NEUROPATHIES” (Washington University, priority 2007, published 2016).

Key:
neuro2A cells = assay: neurite outgrowth in Neuro2a cells; format: cell-based; conditions: for effect on resveratrol-stimulated neurite outgrowth: resveratrol 10 μM, Compound C 10 μM, SIRT1 inhibitors, STO 609 2.5 μM or dnAMPK expression
Procedure: FIG. 11A-D illustrates the resveratrol and AICAR stimulation of neurite outgrowth in Neuro2a cells. Neuro2a cells were switched to serum-starvation medium (medium containing 0.2% FCS) and treated with DMSO (vehicle control), resveratrol (10 μM) or AICAR (1 mM). (A) Serum deprivation of Neuro2a cells results in growth of short neurites that increase in length over 72 h. (B) Resveratrol induced rapid neurite outgrowth resulting in elaborate neurite network formation by 48 h. (C) AICAR stimulated extensive neurite outgrowth similar to that observed with resveratrol. (D).
FIG. 12A-M illustrates the dependency of resveratrol-induced neurite outgrowth and mitochondrial biogenesis on AMPK. Neuro2a cells were infected with lentivirus expressing GFP only (FUGW, control), dominant negative AMPK (dnAMPK) or constitutively active AMPK (caAMPK). Three days later cells were shifted to serum-starvation medium containing DMSO (control) or resveratrol (10 μM). In addition, uninfected Neuro2a cells in serum-starvation medium were treated with resveratrol alone, the AMPK inhibitor Compound C (CC, Biomol International L.P. (Plymouth Meeting, Pa.)) (10 μM) alone or with resveratrol and CC together. Images of the cultures captured in bright field and green fluorescence were overlaid to visualize neurite outgrowth. […] Neurite length in cells treated with caAMPK+resveratrol is also shown (G). […] Values were normalized to the 18S transcript. Data shown is representative of two independent experiments.
(§1) Cell culture and Reagents. Neuro2 cells obtained from ATCC were grown in MEM with 1.5 g/L sodium bicarbonate, 0.1 mM nonessential amino acids, 0.1 mM sodium pyruvate, 2 mM L-glutamine with 10% FCS. For differentiation, cells were switched to serum-starvation medium (containing 0.2% FCS). For neurite outgrowth measurements, experiments were done in quadruplicate and 100 neurites per well were randomly measured using the Metamorph software. Dorsal root ganglia sensory and cortical neurons were established from E13.5 mouse embryos, maintained in neurobasal medium supplemented with B27 (and NGF for DRG neurons) and infected with lentiviruses as described (Araki et al., 2004, Science 305:1010-1013; Hawley et al., 2005, Cell Metab 2:21-23). Resveratrol was a gift from Sirtris Pharmaceuticals (Cambridge Mass.) and AICAR was obtained from Toronto Research (North York, Canada). Splitomycin and Compound C were purchased from Biomol (Plymouth Meeting, Pa.) and Calbiochem (San Diego, Calif.). Sirtinol and nicotinamide were purchased from Sigma (Saint Louis, Mo.)
Neuro2a cells are a widely used as in vitro model of neuronal differentiation. These cells cease to proliferate and begin to differentiate, as evidenced by neurite outgrowth, in response to serum starvation, retinoic acid, or growth factors like neurotrophins and GDNF family ligands. […] Neuro2a cells grown under serum starvation conditions (0.2% fetal calf serum) were treated with AICAR (1 mM) or resveratrol (10 μM).
Since resveratrol activated AMPK and altered the differentiation of Neuro2a cells, we next asked whether AMPK activity was required for resveratrol-induced neurite outgrowth. To address this issue, we infected Neuro2a cells with lentivirus expressing either GFP alone (FUGW-control) or dominant negative AMPK (dnAMPK). After 3 days growth to allow robust lentiviral transgene expression, the medium was replaced with serum starvation medium. […] Resveratrol-induced neurite outgrowth was reduced in the presence of the AMPK pharmacological inhibitor Compound C (CC 10 μM) further supporting the importance of AMPK activity for resveratrol-induced neurite outgrowth.

AMPK = AMPK phosphorylation in Neuro2a cells (phospho-specific western blot); format: cell-based; conditions: for effect on resveratrol-mediated activation of AMPK (AMPK and ACC phosphorylation): resveratrol 10 μM, 2 h, sirtinol 10 μM, splitomycin 10 μM, nicotinamide 10 mM, STO 609 2.5 μM
Procedure: FIG. 10A-D illustrates resveratrol activation of AMP kinase in Neuro2a cells. Neuro2a cells were switched to serum-starvation medium (medium containing 0.2% FCS) and treated with DMSO (vehicle control), resveratrol (10 μM) or 5-aminoimidazole-4-carboxamide-1-β-D-ribofuranoside (AICAR) (1 mM). […] Very low levels of phosphorylated AMPK and ACC were detected in DMSO treated control cells at all time points tested. (C) Densitometric analysis of changes in phosphorylated AMPK and (D) phosphorylated ACC under different conditions is shown.
as §1
Plasmids and viruses. The dominant negative (dnAMPK) and constitutively active (caAMPK) plasmids were gifts from Russell Jones (University of Pennsylvania, Philadelphia Pa.), and pCXN-Cre was a gift of Inder Verma (Salk Institute, San Diego, Calif.). All constructs were subcloned into the lentiviral shuttle vector FCIV and verified by nucleotide sequence analysis. Viruses were prepared as previously described (Araki et al., 2004, Science 305:1010-1013). Protein and mRNA analysis. Immunoprecipitations and western blot analysis were performed by standard methods using antibodies directed against total AMPK, phosphorylated AMPK, total ACC or phosphorylated ACC that were obtained from Cell Signaling Technology (Beverley, Mass.). The phospho-AMPK antibody detects endogenous AMPK α1 and α2 when phosphorylated at threonine 172. The LKB1 antibody was purchased from Upstate (Lake Placid, N.Y.). Quantitative RT-PCR analysis was performed using Sybr-Green methodology on a model 7700 instrument (Applied Biosystems) as previously described (Araki et al., 2004, Science 305:1010-1013). Primer sequences were those used in previous studies (Motoshima, et al., 2006, J Physiol 574:63-71).
To explore the role of polyphenols, in particular, of resveratrol, we tested whether resveratrol altered the activity of AMPK in neuronal cells. Neuro2a neuroblastoma cells were treated with resveratrol (10 μM) and AMPK activation was examined using phospho-AMPK specific antibodies. […] To confirm that AMPK activation by resveratrol results in typical AMPK-mediated downstream responses, we monitored phosphorylation of ACC (acetyl Co-A carboxylase), a primary target of activated AMPK. […] To examine a potential mechanism of resveratrol-mediated AMPK activation, we measured cellular ATP levels as a decreased ATP:AMP ratio increases the phosphorylation of AMPK. ATP levels were monitored using a luciferase-based assay in neuro2A cells treated with resveratrol or Oligomycin, an inhibitor of mitochondrial oxidative phosphorylation and therefore ATP production. While the ATP concentration dropped from 5.874 μM in DMSO-treated cells (control) to 0.976 μM in Oligomycin treated cells within 2 hr, the ATP concentration in resveratrol-treated Neuro2a cells was not altered from control either at 2 hr (6.33 μM) or 24 hr (6.42 μM).

| SMILES | effect on resveratrol-stimulated neurite outgrowth (neuro2A cells) | effect on resveratrol-mediated activation of AMPK (AMPK and ACC phosphorylation) (AMPK) | neurite outgrowth compared to serum starvation alone (neuro2A cells; 0.2% FCS, resveratrol 10 μM or AICAR 1 mM) | AMPK phosphorylation (AMPK; resveratrol 10 μM or AICAR 1 mM, 2 h up to 72 h) |
| --- | --- | --- | --- | --- |
| NC(=O)c1cccnc1 [Nam, nicotinamide] | had no effect | None of the SIRT1 inhibitors attenuated |  |  |
| O=C(O)c1ccc2c3c1cccc3c(=O)n1c3ccccc3nc21 [STO 609] | had no effect | had no effect |  |  |
| CC(NC(=O)c1ccccc1/N=C/c1c(O)ccc2ccccc12)c1ccccc1 (stereo not shown) [Sirtinol] | had no effect | None of the SIRT1 inhibitors attenuated |  |  |
| Oc1ccc(C=Cc2cc(O)cc(O)c2)cc1 [resveratrol] |  |  | increased neurite outgrowth | robust increase in AMPK Thr172 phosphorylation |
| O=C1CCc2c(ccc3ccccc23)O1 [splitomycin] | had no effect | None of the SIRT1 inhibitors attenuated |  |  |
